Measured values as given in US20260297095A1, “NOVEL PYRROLOTRIAZINE DERIVATIVE AND USE THEREOF” (Pelemed Co., Ltd., priority 2024, published 2026).

What was measured:
[1] = target: YES1 kinase (Homo sapiens, UniProt P07947); test: YES1 kinase inhibition, ADP Glo assay (Promega); assay type: biochemical; settings: for IC50: class symbols, read-out: YES1 enzyme, IC50; for inhibition at 0.01 µM: compound 10 nM, read-out: YES1 enzyme, % inhibition, 10 nM; for inhibition at 0.1 µM: compound 100 nM, read-out: YES1 enzyme, % inhibition, 100 nM; for YES1 kinase inhibition at 1 nM (in words) / inhibition at 0.001 µM: compound 1 nM; for inhibition at 0.001 µM: read-out: YES1 enzyme, % inhibition, 1 nM
Description: To evaluate the inhibitory activity against YES1 kinase of the compound according to the present invention, ADP Glo assay (Promega) was used, and the following method was performed with reference to the Promega kinase enzyme system protocol. To proceed with the experiment, buffers A-F and compound dilution plates were required.
To prepare A.4X reaction buffer, 800 μl of 5X reaction buffer and 200 μl of distilled water were used. To prepare B.4X kinase buffer, 996.6 μl of A.4X reaction buffer, 2 μl of 0.1M DTT, and 3.2 μl of 2.5M MnCl2 were added and mixed. To prepare C.1X kinase buffer (containing 5% DMSO) used for compound dilution, 250 μl of B.4X kinase buffer, 700 μl of distilled water, and 50 μl of DMSO were added, so that the final DMSO concentration became 5%. Then, 10 mM compounds were diluted 100-fold to prepare 100 μM solutions, and then D.5X inhibitor solution was prepared so that the compound concentration became 5 uM. Using a 96-well plate, 5 μM compounds were 3-fold diluted using C.1X kinase buffer (containing 5% DMSO) to prepare compound plates with concentrations ranging from 0.25 μM to 5 μM. The resulting plates were stored at room temperature. To prepare E. 2.5X ATP/substrate mixture, 50 μl of B.4X kinase buffer, 50 μl of […], and 100 μl of substrate were mixed. To prepare F YES1 kinase enzyme solution, 35 μl of B.4X kinase buffer, 0.4 μl of YES1 enzyme, and 104.6 μl of distilled water were used. Once the diluted compound plates, ATP/substrate mixture, and YES1 kinase solution were all prepared, 3 μL each was transferred from the diluted compound plate to a luciferase 96-well white plate (Since the total volume of the ATP/substrate and YES1 kinase solution that reacts with the compound is 15 μL, the compounds were diluted 5-fold, making the final compound concentration 0.05 μM-1 μM). Then, 6 μL of F. YES1 Kinase Enzyme Solution was transferred to each well, pipetted 10 times to mix, and incubated at room temperature in a shaker for 10 minutes. Next, 6 μL of E. 2.5X ATP/Substrate Mixture was transferred to each well, pipetted 10 times to mix, and centrifuged at 12,000 rpm for 5 minutes. The plate was then incubated in a shaker at room temperature for 40 minutes. After that, 15 μL of ADP-Glo Reagent, dissolved at room temperature, was added to each well, pipetted 10 times, and incubated in a shaker at room temperature for 40 minutes. Finally, 30 μL of Kinase Detection Reagent, dissolved at room temperature, was added, pipetted 10 times, incubated in a shaker at room temperature for 30 minutes. Luminescence was measured using a luminescence plate reader. Then, the background value was subtracted from all measured values, and the YES1 kinase activity at compound concentrations of 1 nM, 10 nM, and 100 nM was calculated. The measured values were calculated as percentages using the average value of the negative control. Graphs were drawn using GraphPad Prism, and the enzyme activity was calculated as a percentage of YES1 kinase inhibition at compound concentrations of 1 nM, 10 nM, and 100 nM. IC50 values were obtained using Microsoft Excel.

[2] = test system: KYSE-70 esophageal cancer cell line; test: Cell growth inhibition of KYSE-70 (Sulforhodamine B); assay type: cell-based; settings: Homo sapiens; KYSE-70, 72 hours; read-out: KYSE70 GI50
Outline: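 KYSE-70 cells (YES1-amplified) in RPMI-1640 with 10% FBS were seeded 24 h before treatment with compound at 0.0046–10 µM final. After 72 h, cells were TCA-fixed and stained with sulforhodamine B, with absorbance read at 510 nm. GI50 was derived with a time-zero plate set to 0% and the vehicle control to 100%, in duplicate tests.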

Chain of YES1 kinase (P07947 whole entry): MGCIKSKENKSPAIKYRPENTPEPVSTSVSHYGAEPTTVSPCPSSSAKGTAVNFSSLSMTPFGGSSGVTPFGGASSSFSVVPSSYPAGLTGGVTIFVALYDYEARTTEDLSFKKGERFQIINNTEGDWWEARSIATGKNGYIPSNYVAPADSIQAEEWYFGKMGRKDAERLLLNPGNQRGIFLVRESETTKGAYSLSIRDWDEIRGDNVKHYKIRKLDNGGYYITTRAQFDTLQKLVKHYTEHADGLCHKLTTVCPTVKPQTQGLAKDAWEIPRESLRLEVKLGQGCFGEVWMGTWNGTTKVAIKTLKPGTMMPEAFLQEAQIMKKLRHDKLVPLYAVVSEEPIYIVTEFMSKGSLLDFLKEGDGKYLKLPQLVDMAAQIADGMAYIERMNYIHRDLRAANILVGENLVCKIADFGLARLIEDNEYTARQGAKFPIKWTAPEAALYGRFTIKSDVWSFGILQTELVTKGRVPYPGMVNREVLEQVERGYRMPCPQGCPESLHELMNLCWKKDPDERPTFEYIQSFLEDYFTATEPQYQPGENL

Compound | IC50 [1] | inhibition at 0.01 µM [1] | inhibition at 0.1 µM [1] | GI50 [2] | inhibition at 0.001 µM [1] | YES1 kinase inhibition at 1 nM (in words) [1]
COc1cc(-c2cc(-c3ccc4c(c3)OCC(=O)N4C)n3ncnc(N)c23)ccc1NC(=O)OC(C)(C)C [Example 8, tert-butyl (4-(4-amino-7-(4-methyl-3-oxo-3,4-dihydro-2H-benzo[b][1,4]oxazin-7-yl)pyrrolo[2,1-f][1,2,4]triazin-5-yl)-2-methoxyphenyl)carbamate] | – | 33% | 64% | > 10000 nM | – | –
COc1cc(-c2cc(N3CCC4(CCCN4C)CC3)n3ncnc(N)c23)ccc1NC(=O)OC(C)(C)C [Example 24, tert-butyl (4-(4-amino-7-(1-methyl-1,8-diazaspiro[4.5]decan-8-yl)pyrrolo[2,1-f][1,2,4]triazin-5-yl)-2-methoxyphenyl)carbamate] | – | 50% | 82% | 100 to 1000 nM | – | –
COc1cc(-c2cc(N3CCN(C4CC4)CC3)n3ncnc(N)c23)ccc1NC(=O)OC(C)(C)C [Example 17, tert-butyl (4-(4-amino-7-(4-cyclopropylpiperazin-1-yl)pyrrolo[2,1-f][1,2,4]triazin-5-yl)-2-methoxyphenyl)carbamate] | – | 53% | 59% | 1000 to 10000 nM | – | –
COc1cc(-c2cc(N3CCC(CN)C(C)(C)C3)n3ncnc(N)c23)ccc1NC(=O)OC(C)(C)C (stereo not drawn) [Example 104, tert-butyl (4-(4-amino-7-(4-(aminomethyl)-3,3-dimethylpiperidin-1-yl)pyrrolo[2,1-f][1,2,4]triazin-5-yl)-2-methoxyphenyl)carbamate] | – | 45% | – | 100 to 1000 nM | 33% | could be inhibited even at a low concentration of 1 nM
COc1cc(-c2cc(N3CCC4(CN(C)C4)C3)n3ncnc(N)c23)ccc1NC(=O)OC(C)(C)C [Example 37, tert-butyl (4-(4-amino-7-(2-methyl-2,6-diazaspiro[3.4]octan-6-yl)pyrrolo[2,1-f][1,2,4]triazin-5-yl)-2-methoxyphenyl)carbamate] | – | 24% | 69% | 100 to 1000 nM | – | –
COc1cc(-c2cc(N3CC4CC(C3)C4N)n3ncnc(N)c23)ccc1NC(=O)OC(C)(C)C (stereo not drawn) [Example 93, tert-butyl (4-(4-amino-7-(6-amino-3-azabicyclo[3.1.1]heptan-3-yl)pyrrolo[2,1-f][1,2,4]triazin-5-yl)-2-methoxyphenyl)carbamate] | – | 14% | 48% | 100 to 1000 nM | – | –
COc1cc(-c2cc(N3CCC4NCCC4C3)n3ncnc(N)c23)ccc1NC(=O)OC(C)(C)C (stereo not drawn) [Example 25, tert-butyl (4-(4-amino-7-(octahydro-5H-pyrrolo[3,2-c]pyridin-5-yl)pyrrolo[2,1-f][1,2,4]triazin-5-yl)-2-methoxyphenyl)carbamate] | – | 28% | 76% | 100 to 1000 nM | – | –
CCNC1CCN(c2cc(-c3ccc(NC(=O)OC(C)(C)C)c(OC)c3)c3c(N)ncnn23)CC1 [Example 92, tert-butyl (4-(4-amino-7-(4-(ethylamino)piperidin-1-yl)pyrrolo[2,1-f][1,2,4]triazin-5-yl)-2-methoxyphenyl)carbamate] | ≤ 100 nM | 66% | 81% | 100 to 1000 nM | – | –
COc1cc(-c2cc(N3CCC(N)CC3)n3ncnc(N)c23)ccc1NC(=O)c1ccoc1 [Example 138, N-(4-(4-amino-7-(4-aminopiperidin-1-yl)pyrrolo[2,1-f][1,2,4]triazin-5-yl)-2-methoxyphenyl)furan-3-carboxamide] | ≤ 100 nM | – | – | > 10000 nM | – | –

Further lines, with some results ahead:

IC50 [1] | inhibition at 0.01 µM [1] | inhibition at 0.1 µM [1] | GI50 [2] | inhibition at 0.001 µM [1] | Compound | YES1 kinase inhibition at 1 nM (in words) [1]
≤ 100 nM | 67% | 88% | ≤ 100 nM | – | COc1cc(-c2c(F)c(N3CCC(N)CC3)n3ncnc(N)c23)ccc1NC(=O)OC(C)(C)C [Example 127, tert-butyl (4-(4-amino-7-(4-aminopiperidin-1-yl)-6-fluoropyrrolo[2,1-f][1,2,4]triazin-5-yl)-2-methoxyphenyl)carbamate] | –
– | 70% | 90% | 100 to 1000 nM | – | COc1cc(-c2cc(N3CC4CC3CC4N)n3ncnc(N)c23)ccc1NC(=O)OC(C)(C)C (stereo not drawn) [Example 51, tert-butyl (4-(4-amino-7-(5-amino-2-azabicyclo[2.2.1]heptan-2-yl)pyrrolo[2,1-f][1,2,4]triazin-5-yl)-2-methoxyphenyl)carbamate] | –
– | 39% | 81% | 100 to 1000 nM | – | COc1cc(-c2cc(N3CC4(CC(N(C)C)C4)C3)n3ncnc(N)c23)ccc1NC(=O)OC(C)(C)C [Example 18, tert-butyl (4-(4-amino-7-(6-(dimethylamino)-2-azaspiro[3.3]heptan-2-yl)pyrrolo[2,1-f][1,2,4]triazin-5-yl)-2-methoxyphenyl)carbamate] | –
– | 55% | – | 100 to 1000 nM | 24% | COc1cc(-c2cc(N[C@H]3C[C@H](N)C3)n3ncnc(N)c23)ccc1NC(=O)OC(C)(C)C [Example 119, tert-butyl (4-(4-amino-7-(((1r,3r)-3-aminocyclobutyl)amino)pyrrolo[2,1-f][1,2,4]triazin-5-yl)-2-methoxyphenyl)carbamate] | could be inhibited even at a low concentration of 1 nM
– | 39% | 64% | 100 to 1000 nM | – | COc1cc(-c2cc(NCC3CCNCC3)n3ncnc(N)c23)ccc1NC(=O)OC(C)(C)C [Example 117, tert-butyl (4-(4-amino-7-((piperidin-4-ylmethyl)amino)pyrrolo[2,1-f][1,2,4]triazin-5-yl)-2-methoxyphenyl)carbamate] | –
≤ 100 nM | 60% | 90% | 100 to 1000 nM | – | COc1cc(-c2cc(N3CCC4(CC3)CNC(=O)C4)n3ncnc(N)c23)ccc1NC(=O)OC(C)(C)C [Example 52, tert-butyl (4-(4-amino-7-(3-oxo-2,8-diazaspiro[4.5]decan-8-yl)pyrrolo[2,1-f][1,2,4]triazin-5-yl)-2-methoxyphenyl)carbamate] | –
≤ 100 nM | 23% | 68% | ≤ 100 nM | – | COc1cc(-c2cc(N3CCC4(CC3)CC(=O)N4)n3ncnc(N)c23)ccc1NC(=O)OC(C)(C)C [Example 56, tert-butyl (4-(4-amino-7-(2-oxo-1,7-diazaspiro[3.5]nonan-7-yl)pyrrolo[2,1-f][1,2,4]triazin-5-yl)-2-methoxyphenyl)carbamate] | –
≤ 100 nM | 80% | 96% | ≤ 100 nM | – | CNC1CCN(c2cc(-c3ccc(NC(=O)OC(C)(C)C)c(OC)c3)c3c(N)ncnn23)CC1 [Example 44, tert-butyl (4-(4-amino-7-(4-(methylamino)piperidin-1-yl)pyrrolo[2,1-f][1,2,4]triazin-5-yl)-2-methoxyphenyl)carbamate] | –
– | 73% | 94% | ≤ 100 nM | – | COc1cc(-c2cc(N3CC[C@@H](N(C)C)[C@@H](F)C3)n3ncnc(N)c23)ccc1NC(=O)OC(C)(C)C [Example 30, tert-butyl (4-(4-amino-7-((3S,4R)-4-(dimethylamino)-3-fluoropiperidin-1-yl)pyrrolo[2,1-f][1,2,4]triazin-5-yl)-2-methoxyphenyl)carbamate] | –
